# Square brackets hold non-standard residues; d marks the D form. Peptide text beside a SMILES is read from it. * marks the point of attachment. Ala(1H-tetrazol-5-yl) = N[C@@H](Cc1nnn[nH]1)C(=O)O; Nle = CCCC[C@H](N)C(=O)O; Ms = CS(=O)(=O)*
# Columns and labels:
# Format in all cases: physicochemical
# [1] = Peptide stability test 1: aqueous solution, phosphate buffer pH 7.0, stored at 40° C., HPLC conditions 1; conditions: phosphate buffer pH 7.0, 40° C.; for survival rate after correction for water, 40° C., 1-month storage / survival rate after correction for water, 40° C., 2-month storage: 100 μM peptide; for survival rate after correction for water, 40° C., 2-month storage: 2 months
# Protocol: Peptides 1 and 3 to 5 synthesized in Example 2 were weighed and dissolved in phosphate buffer (pH 7.0) to prepare 1.0 mM peptide solutions. The 1.0 mM peptide solutions were then diluted with phosphate buffer to 100 μM. After filtering with. Chromatdisk (product of Merck Millipore, Millex-GV, 0.22 μm), each filtrate was dispensed into an LC vial (Waters Deactivated Qsert Vial). The prepared peptide solutions were incubated for one month or 2 months in a 40° C. thermostatic bath to obtain stored samples. A simultaneously prepared sample among the peptide solutions that was not stored was used as a standard sample (initial sample). The standard sample and the stored samples were stored at −30° C. until sample analysis.
# Using the total weight of the aqueous peptide solution and storage vessel as the specimen weight, measurements were recorded as the specimen weights before storage and the specimen weights after storage under different storage conditions. The empty weight of the storage vessel was also measured, and the moisture permeability was determined by the following formula.
# After stirring the standard sample and the stored samples on a vortex mixer, each peptide solution was transferred to an HPLC vial (Deactivated Qsert vial by Waters Co.). Reverse-phase HPLC (HPLC system: Prominence by Shimadzu Corp.) was conducted under the conditions shown in Table 3 below for analysis of the_peptide solutions, and chromatograms were obtained.
# Column: XSelect CSH C18 by Waters Co., 5 μm, 4.6×250 mm
# Guard column: XSelect CSH C18 by Waters. Co., 5 μm, 4.6×20 mm Guard Cartridge
# Detection wavelength: 220 nm
# Mobile phase A: 0.1% formic acid in water
# Mobile phase B: 0.1% formic acid in acetonitrile
# Measuring time: 30 minutes
# Measuring sample injection rate: 50 μL
# Column temperature: 40° C.
# Mobile phase delivery: The mixing ratio of mobile phase A and mobile phase B was varied as shown in Table 3 for linear concentration gradient control.
# The peak area value for the peptide in the chromatogram was calculated, and the survival rate (survival rate before correction for water) was calculated using formula (2). The survival rate after correction for water was also calculated from the survival rate before correction for water using formula (3), taking into account the moisture permeability of the container.
# [2] = Peptide stability tests 2 and 3: Tris buffer pH 7.0, stored at 60° C., HPLC conditions 2; conditions: 100 μM peptide, Tris buffer pH 7.0, 60° C.
# Summary of the method: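 Survival rate, corrected for water, was quantified by reversed-phase C18 HPLC (220 nm; formic acid water/acetonitrile gradient; 40° C. column) against an initial unstored standard. Samples were 100 μM peptide in pH 7.0 Tris stored 1–2 weeks at 60° C.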
# [3] = Peptide stability test 4: phosphate buffer pH 7.0, stored at 40° C.; conditions: phosphate buffer pH 7.0, 40° C.; for survival rate after correction for water, 40° C., 1-month storage / survival rate after correction for water, 40° C., 2-month storage: 100 μM peptide; for survival rate after correction for water, 40° C., 2-month storage: 2 months
# Protocol: Peptides 10 and 11 synthesized in Example 2 were weighed and dissolved in phosphate buffer (pH 7.0) to prepare 1.0 mM peptide solutions. The solutions were filtered with a Chromatdisk (product of Merck Millipore, Millex-GV, 0.22 Each filtrate was diluted to 100 μM with phosphate buffer (pH 7.0) and dispensed into a tube (Protein LoBind Tube by Eppendorf Co.). The prepared peptides were incubated for one month or 2 months in a 40° C. thermostatic bath to obtain stored samples. A simultaneously prepared sample among the peptide solutions that was not stored was used as a standard sample (initial sample). The standard sample and the stored samples were stored at −30° C. until sample analysis.
# The survival rate after correction for water for each peptide among the stored samples was measured in the same manner as Example 4, and the results are shown in Table 8.
compound,measurement,setting,value
"CC[C@H](C)[C@H](NC(=O)CNC(=O)[C@H](CC(=O)O)NC(=O)[C@H](CO)NC(=O)[C@@H](N)Cc1c[nH]cn1)C(=O)N[C@@H](Cc1ccccc1)C(=O)N[C@H](C(=O)N[C@@H](CC(=O)O)C(=O)N[C@@H](CO)C(=O)N[C@@H](Cc1ccc(O)cc1)C(=O)N[C@@H](CO)C(=O)N[C@@H](CCCNC(=N)N)C(=O)N[C@@H](Cc1ccc(O)cc1)C(=O)N[C@@H](CCCNC(=N)N)C(=O)N[C@@H](CCCCN)C(=O)N[C@@H](CCC(N)=O)C(=O)N[C@@H](CCSC)C(=O)N[C@@H](C)C(=O)N[C@H](C(=O)N[C@@H](CCCCN)C(=O)N[C@@H](CCCCN)C(=O)N[C@@H](Cc1ccc(O)cc1)C(=O)N[C@@H](CC(C)C)C(=O)N[C@@H](C)C(=O)N[C@@H](C)C(=O)N[C@H](C(=O)N[C@@H](CC(C)C)C(N)=O)C(C)C)C(C)C)[C@@H](C)O [Peptide 1, reference compound]","survival rate after correction for water, 40° C., 1-month storage",[1],37.4%
same,"survival rate after correction for water, 40° C., 2-month storage",[1],21.3%
same,"survival rate after correction for water, 60° C., 1-week storage",[2]; 1 week,26.6%
same,"survival rate after correction for water, 60° C., 2-week storage",[2]; 2 weeks,15.8%
CC[C@H](C)[C@H](NC(=O)CNC(=O)[C@H](Cc1nnn[nH]1)NC(=O)[C@H](CO)NC(=O)[C@@H](N)Cc1c[nH]cn1)C(=O)N[C@@H](Cc1ccccc1)C(=O)N[C@H](C(=O)N[C@@H](CC(=O)O)C(=O)N[C@@H](CO)C(=O)N[C@@H](Cc1ccc(O)cc1)C(=O)N[C@@H](CO)C(=O)N[C@@H](CCCNC(=N)N)C(=O)N[C@@H](Cc1ccc(O)cc1)C(=O)N[C@@H](CCCNC(=N)N)C(=O)N[C@@H](CCCCN)C(=O)N[C@@H](CCC(N)=O)C(=O)N[C@@H](CCSC)C(=O)N[C@@H](C)C(=O)N[C@H](C(=O)N[C@@H](CCCCN)C(=O)N[C@@H](CCCCN)C(=O)N[C@@H](Cc1ccc(O)cc1)C(=O)N[C@@H](CC(C)C)C(=O)N[C@@H](C)C(=O)N[C@@H](C)C(=O)N[C@H](C(=O)N[C@@H](CC(C)C)C(N)=O)C(C)C)C(C)C)[C@@H](C)O [Peptide 3],"survival rate after correction for water, 40° C., 1-month storage",[1],76.5%
same,"survival rate after correction for water, 40° C., 2-month storage",[1],60.7%
same,"stability in aqueous solution, in words",[1],higher stability than peptide 1
CC[C@H](C)[C@H](NC(=O)CNC(=O)[C@H](CC(=O)O)NC(=O)[C@H](CO)NC(=O)[C@@H](N)Cc1c[nH]cn1)C(=O)N[C@@H](Cc1ccccc1)C(=O)N[C@H](C(=O)N[C@@H](Cc1nnn[nH]1)C(=O)N[C@@H](CO)C(=O)N[C@@H](Cc1ccc(O)cc1)C(=O)N[C@@H](CO)C(=O)N[C@@H](CCCNC(=N)N)C(=O)N[C@@H](Cc1ccc(O)cc1)C(=O)N[C@@H](CCCNC(=N)N)C(=O)N[C@@H](CCCCN)C(=O)N[C@@H](CCC(N)=O)C(=O)N[C@@H](CCSC)C(=O)N[C@@H](C)C(=O)N[C@H](C(=O)N[C@@H](CCCCN)C(=O)N[C@@H](CCCCN)C(=O)N[C@@H](Cc1ccc(O)cc1)C(=O)N[C@@H](CC(C)C)C(=O)N[C@@H](C)C(=O)N[C@@H](C)C(=O)N[C@H](C(=O)N[C@@H](CC(C)C)C(N)=O)C(C)C)C(C)C)[C@@H](C)O [Peptide 4] (H-HSDGIFT[Ala(1H-tetrazol-5-yl)]SYSRYRKQMAVKKYLAAVL-NH2),"survival rate after correction for water, 40° C., 1-month storage",[1],42.8%
same,"survival rate after correction for water, 40° C., 2-month storage",[1],28.2%
same,"stability in aqueous solution, in words",[1],increased stability compared to peptide 1
CC[C@H](C)[C@H](NC(=O)CNC(=O)[C@H](Cc1nnn[nH]1)NC(=O)[C@H](CO)NC(=O)[C@@H](N)Cc1c[nH]cn1)C(=O)N[C@@H](Cc1ccccc1)C(=O)N[C@H](C(=O)N[C@@H](Cc1nnn[nH]1)C(=O)N[C@@H](CO)C(=O)N[C@@H](Cc1ccc(O)cc1)C(=O)N[C@@H](CO)C(=O)N[C@@H](CCCNC(=N)N)C(=O)N[C@@H](Cc1ccc(O)cc1)C(=O)N[C@@H](CCCNC(=N)N)C(=O)N[C@@H](CCCCN)C(=O)N[C@@H](CCC(N)=O)C(=O)N[C@@H](CCSC)C(=O)N[C@@H](C)C(=O)N[C@H](C(=O)N[C@@H](CCCCN)C(=O)N[C@@H](CCCCN)C(=O)N[C@@H](Cc1ccc(O)cc1)C(=O)N[C@@H](CC(C)C)C(=O)N[C@@H](C)C(=O)N[C@@H](C)C(=O)N[C@H](C(=O)N[C@@H](CC(C)C)C(N)=O)C(C)C)C(C)C)[C@@H](C)O [Peptide 5] (H-HS[Ala(1H-tetrazol-5-yl)]GIFT[Ala(1H-tetrazol-5-yl)]SYSRYRKQMAVKKYLAAVL-NH2),"survival rate after correction for water, 40° C., 1-month storage",[1],94.7%
same,"survival rate after correction for water, 40° C., 2-month storage",[1],85.6%
same,"stability in aqueous solution, in words",[1],further increased stability over peptide 3 and peptide 4
CC[C@H](C)[C@H](NC(=O)CNC(=O)[C@H](Cc1nnn[nH]1)NC(=O)[C@H](CO)NC(=O)[C@H](Cc1c[nH]cn1)NC(C)=O)C(=O)N[C@@H](Cc1ccccc1)C(=O)N[C@H](C(=O)N[C@@H](Cc1nnn[nH]1)C(=O)N[C@@H](CO)C(=O)N[C@@H](Cc1ccc(O)cc1)C(=O)N[C@@H](CO)C(=O)N[C@@H](CCCNC(=N)N)C(=O)N[C@@H](Cc1ccc(O)cc1)C(=O)N[C@@H](CCCNC(=N)N)C(=O)N[C@@H](CCCCN)C(=O)N[C@@H](CCC(N)=O)C(=O)N[C@@H](CCSC)C(=O)N[C@@H](C)C(=O)N[C@H](C(=O)N[C@@H](CCCCN)C(=O)N[C@@H](CCCCN)C(=O)N[C@@H](Cc1ccc(O)cc1)C(=O)N[C@@H](CC(C)C)C(=O)N[C@@H](C)C(=O)N[C@@H](C)C(=O)N[C@H](C(=O)N[C@@H](CC(C)C)C(N)=O)C(C)C)C(C)C)[C@@H](C)O [Peptide 10] (Ac-HS[Ala(1H-tetrazol-5-yl)]GIFT[Ala(1H-tetrazol-5-yl)]SYSRYRKQMAVKKYLAAVL-NH2),"survival rate after correction for water, 40° C., 1-month storage",[3],94.0%
same,"survival rate after correction for water, 40° C., 2-month storage",[3],87.8%
same,"stability in aqueous solution, in words",[3],stabilized to the same degree
CCCC[C@H](NC(=O)[C@H](CCC(N)=O)NC(=O)[C@H](CCCCN)NC(=O)[C@H](CCCNC(=N)N)NC(=O)[C@H](Cc1ccc(O)cc1)NC(=O)[C@H](CCCNC(=N)N)NC(=O)[C@H](CO)NC(=O)[C@H](Cc1ccc(O)cc1)NC(=O)[C@H](CO)NC(=O)[C@H](Cc1nnn[nH]1)NC(=O)[C@@H](NC(=O)[C@H](Cc1ccccc1)NC(=O)[C@@H](NC(=O)CNC(=O)[C@H](Cc1nnn[nH]1)NC(=O)[C@H](CO)NC(=O)[C@H](Cc1c[nH]cn1)NS(C)(=O)=O)[C@@H](C)CC)[C@@H](C)O)C(=O)N[C@@H](C)C(=O)N[C@H](C(=O)N[C@@H](CCCCN)C(=O)N[C@@H](CCCCN)C(=O)N[C@@H](Cc1ccc(O)cc1)C(=O)N[C@@H](CC(C)C)C(=O)N[C@@H](C)C(=O)N[C@@H](C)C(=O)N[C@H](C(=O)N[C@@H](CC(C)C)C(N)=O)C(C)C)C(C)C [Peptide 11] (Ms-HS[Ala(1H-tetrazol-5-yl)]GIFT[Ala(1H-tetrazol-5-yl)]SYSRYRKQ[Nle]AVKKYLAAVL-NH2),"survival rate after correction for water, 40° C., 1-month storage",[3],94.2%
same,"survival rate after correction for water, 40° C., 2-month storage",[3],88.8%
same,"stability in aqueous solution, in words",[3],stabilized to the same degree

# Source: patent US12304932B2, “PACAP stabilized peptide” (SENJU PHARMACEUTICAL CO., LTD., priority 2017, dated 2025)
